In US9113629B2, “4-amino-6-(4-substituted-phenyl)-picolinates and 6-amino-2-(4-substituted-phenyl)-pyrimidine-4-carboxylates and their use as herbicides” (DOW AGROSCIENCES LLC, priority 2013, dated 2015):
Like-named read-outs stand apart in the source and are kept apart here.

Tests used:
[1] = tested on: Key Grass and Sedge Weeds as well as Grass Crops; experiment: Post-emergent Test II herbicidal activity (Table 6); type: in vivo; details: post-emergence, 336 h; for pest or weed control at 70 g/ha: 70 g ai/ha; for pest or weed control at 140 g/ha: 140 g ai/ha
In short: (§1)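 Spray rates: a highest rate plus ½×, ¼×, ⅛×, 1/16×, all delivered at 187 L/ha to plants at the first–second true leaf stage. Readout is a visual percent injury score at 14 d, where 100 means complete kill.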

[2] = tested on: Key Broadleaf Weed and Crop Species; experiment: Post-emergent Test II herbicidal activity (Table 5); type: in vivo; details: post-emergence, 336 h, 14 days after application; for pest or weed control at 70 g/ha: application rate 70 g ai/ha; for pest or weed control at 140 g/ha: application rate 140 g ai/ha
In short: as §1

[3] = CYPES: yellow nutsedge (Cyperus esculentus), read-out: Visual Growth Reduction (%) 14 Days After Application, CYPES
[4] = DIGSA: crabgrass (Digitaria sanguinalis), read-out: Visual Growth Reduction (%) 14 Days After Application, DIGSA
[5] = ECHCG: barnyardgrass (Echinochloa crus-galli), read-out: Visual Growth Reduction (%) 14 Days After Application, ECHCG
[6] = ORYSA: rice (Oryza sativa), crop, read-out: Visual Growth Reduction (%) 14 Days After Application, ORYSA
[7] = SETFA: giant foxtail (Setaria faberi), read-out: Visual Growth Reduction (%) 14 Days After Application, SETFA
[8] = SORVU: grain sorghum (Sorghum vulgare), read-out: Visual Growth Reduction (%) 14 Days After Application, SORVU
[9] = TRZSS (wheat, Triticum aestivum), crop, read-out: Visual Growth Reduction (%) 14 Days After Application, TRZSS
[10] = ZEAMX: maize, corn (Zea mays), crop, read-out: Visual Growth Reduction (%) 14 Days After Application, ZEAMX
[11] = ABUTH: velvetleaf (Abutilon theophrasti), read-out: Visual Growth Reduction (%) 14 Days After Application, ABUTH
[12] = AMARE: redroot pigweed (Amaranthus retroflexus), read-out: Visual Growth Reduction (%) 14 Days After Application, AMARE
[13] = BRSNN: oilseed-rape, canola (Brassica napus), read-out: Visual Growth Reduction (%) 14 Days After Application, BRSNN
[14] = CHEAL: lambsquarters (Chenopodium album), read-out: Visual Growth Reduction (%) 14 Days After Application, CHEAL
[15] = EPHHL: wild poinsettia (Euphorbia heterophylla), read-out: Visual Growth Reduction (%) 14 Days After Application, EPHHL
[16] = HELAN: sunflower (Helianthus annuus), read-out: Visual Growth Reduction (%) 14 Days After Application, HELAN
[17] = VIOTR: wild pansy (Viola tricolor), read-out: Visual Growth Reduction (%) 14 Days After Application, VIOTR

Structure (SMILES) | pest or weed control at 70 g/ha [1, 3] [%] | pest or weed control at 140 g/ha [1, 3] [%] | pest or weed control at 70 g/ha [1, 4] [%] | pest or weed control at 140 g/ha [1, 4] [%] | pest or weed control at 70 g/ha [1, 5] [%] | pest or weed control at 140 g/ha [1, 5] [%] | pest or weed control at 70 g/ha [1, 6] [%] | pest or weed control at 140 g/ha [1, 6] [%] | pest or weed control at 70 g/ha [1, 7] [%] | pest or weed control at 140 g/ha [1, 7] [%] | pest or weed control at 70 g/ha [1, 8] [%] | pest or weed control at 140 g/ha [1, 8] [%] | pest or weed control at 70 g/ha [1, 9] [%] | pest or weed control at 140 g/ha [1, 9] [%] | pest or weed control at 70 g/ha [1, 10] [%] | pest or weed control at 140 g/ha [1, 10] [%] | pest or weed control at 70 g/ha [2, 11] [%] | pest or weed control at 140 g/ha [2, 11] [%] | pest or weed control at 70 g/ha [2, 12] [%] | pest or weed control at 140 g/ha [2, 12] [%] | other results
C#Cc1ccc(-c2nc(C(=O)O)c(Cl)c(N)c2F)cc1F [Compound 71] | 0 to 29 | 0 to 29 | 60 to 74 | 45 to 59 | 85 to 94 | 85 to 94 | 0 to 29 | 0 to 29 | 60 to 74 | 60 to 74 | 30 to 44 | 45 to 59 | 30 to 44 | 45 to 59 | 95 to 100 | 95 to 100 | 0 to 29 | 45 to 59 | 60 to 74 | 75 to 84 | pest or weed control at 70 g/ha [2, 13]: 45 to 59%; pest or weed control at 140 g/ha [2, 13]: 45 to 59%; pest or weed control at 70 g/ha [2, 14]: 85 to 94%; pest or weed control at 140 g/ha [2, 14]: 85 to 94%; pest or weed control at 70 g/ha [2, 15]: 95 to 100%; pest or weed control at 140 g/ha [2, 15]: 95 to 100%; pest or weed control at 70 g/ha [2, 16]: 60 to 74%; pest or weed control at 140 g/ha [2, 16]: 75 to 84%; pest or weed control at 70 g/ha [2, 17]: 0 to 29%; pest or weed control at 140 g/ha [2, 17]: 0 to 29%; melting point: 157 to 160 °C (dec.)
COc1c(N)nc(-c2ccc(I)cc2F)nc1C(=O)O [Compound 72] | 0 to 29 | 95 to 100 | 45 to 59 | 60 to 74 | 95 to 100 | 95 to 100 | 0 to 29 | 0 to 29 | 45 to 59 | 75 to 84 | 85 to 94 | 95 to 100 | 60 to 74 | 60 to 74 | 60 to 74 | 60 to 74 | 85 to 94 | 85 to 94 | 95 to 100 | 95 to 100 | pest or weed control at 70 g/ha [2, 13]: 85 to 94%; pest or weed control at 140 g/ha [2, 13]: 85 to 94%; pest or weed control at 70 g/ha [2, 14]: 95 to 100%; pest or weed control at 140 g/ha [2, 14]: 95 to 100%; pest or weed control at 70 g/ha [2, 15]: 95 to 100%; pest or weed control at 140 g/ha [2, 15]: 95 to 100%; pest or weed control at 70 g/ha [2, 16]: 95 to 100%; pest or weed control at 140 g/ha [2, 16]: 95 to 100%; pest or weed control at 70 g/ha [2, 17]: 60 to 74%; pest or weed control at 140 g/ha [2, 17]: 60 to 74%; melting point: 95 to 98 °C
COC(=O)c1nc(-c2ccc(I)cc2F)nc(N)c1OC [Compound 82] | 95 to 100 | 95 to 100 | 0 to 29 | 0 to 29 | 45 to 59 | 85 to 94 | 0 to 29 | 0 to 29 | 0 to 29 | 0 to 29 | 0 to 29 | 45 to 59 | 30 to 44 | 30 to 44 | 95 to 100 | 95 to 100 | 95 to 100 | 95 to 100 | 95 to 100 | 95 to 100 | pest or weed control at 70 g/ha [2, 13]: 85 to 94%; pest or weed control at 140 g/ha [2, 13]: 85 to 94%; pest or weed control at 70 g/ha [2, 14]: 85 to 94%; pest or weed control at 140 g/ha [2, 14]: 95 to 100%; pest or weed control at 70 g/ha [2, 15]: 95 to 100%; pest or weed control at 140 g/ha [2, 15]: 95 to 100%; pest or weed control at 70 g/ha [2, 16]: 95 to 100%; pest or weed control at 140 g/ha [2, 16]: 95 to 100%; pest or weed control at 70 g/ha [2, 17]: 60 to 74%; pest or weed control at 140 g/ha [2, 17]: 75 to 84%; melting point: 159 to 162 °C
C#Cc1ccc(-c2nc(N)c(OC)c(C(=O)OC)n2)c(F)c1F [Compound 84] | 0 to 29 | 0 to 29 | 0 to 29 | 0 to 29 | 0 to 29 | 0 to 29 | 0 to 29 | 0 to 29 | 0 to 29 | 0 to 29 | 0 to 29 | 0 to 29 | 0 to 29 | 0 to 29 | 0 to 29 | 0 to 29 | 0 to 29 | 0 to 29 | 0 to 29 | 0 to 29 | pest or weed control at 70 g/ha [2, 13]: 0 to 29%; pest or weed control at 140 g/ha [2, 13]: 0 to 29%; pest or weed control at 70 g/ha [2, 14]: 0 to 29%; pest or weed control at 140 g/ha [2, 14]: 0 to 29%; pest or weed control at 70 g/ha [2, 15]: 0 to 29%; pest or weed control at 140 g/ha [2, 15]: 0 to 29%; pest or weed control at 140 g/ha [2, 16]: 60 to 74%; pest or weed control at 70 g/ha [2, 17]: 0 to 29%; pest or weed control at 140 g/ha [2, 17]: 0 to 29%; melting point: 214 to 217 °C
COc1c(N)nc(-c2ccc(I)c(F)c2F)nc1C(=O)O [Compound 89] | 45 to 59 | 95 to 100 | 45 to 59 | 60 to 74 | 85 to 94 | 85 to 94 | 0 to 29 | 60 to 74 | 85 to 94 | 85 to 94 | 85 to 94 | 95 to 100 | 0 to 29 | 45 to 59 | 45 to 59 | 95 to 100 | 85 to 94 | 95 to 100 | 85 to 94 | 95 to 100 | pest or weed control at 70 g/ha [2, 13]: 95 to 100%; pest or weed control at 140 g/ha [2, 13]: 95 to 100%; pest or weed control at 70 g/ha [2, 14]: 95 to 100%; pest or weed control at 140 g/ha [2, 14]: 95 to 100%; pest or weed control at 70 g/ha [2, 15]: 95 to 100%; pest or weed control at 140 g/ha [2, 15]: 95 to 100%; pest or weed control at 70 g/ha [2, 16]: 95 to 100%; pest or weed control at 140 g/ha [2, 16]: 95 to 100%; pest or weed control at 70 g/ha [2, 17]: 95 to 100%; pest or weed control at 140 g/ha [2, 17]: 95 to 100%; melting point: 119 to 121 °C
